Values of other authors in US20100285123A1, “Controlled Release Dosage Formulation of Duloxetine” (priority 2005, published 2010).
Counter-ions that a name gives are not always drawn.

Assays:
[1] = gastric pH
[2] = patients, acute treatment of major depression

## CNCC[C@H](Oc1cccc2ccccc12)c1cccs1 [Duloxetine hydrochloride]
110 of 1279 patients
  patients who did not experience any treatment experienced related adverse event: 8.6%
218 of 1279 patients, major depression, long-term
  patients discontinued due to adverse events: 17.0%
389 of 1279 patients
  headache, patients reporting: 30.4%
400 of 1279 patients
  insomnia, patients reporting: 31.3%
435 of 1279 patients
  nausea, patients reporting: 34.0%
1169 of 1279 patients
  patients who experienced at least one or more treatment experienced adverse event: 91.4%
[1]
  stability in acidic environment: unstable

## Fc1ccc([C@@H]2CCNC[C@H]2COc2ccc3c(c2)OCO3)cc1 [Paroxetine]
[2]
  headache reported: 11.5%
  incidence of nausea: 16.1%
  insomnia reported: 8.0%
